Source: ChEMBL document CHEMBL1127886, “Inhibition of the RTEM-1 -lactamase by boronic acids” (Bioorg Med Chem Lett, 1994)

Target: Beta-lactamase TEM (Escherichia coli, UniProt P62593)
Experiment: Inhibitory constant was determined against class A RTEM-1 Beta-lactamase from Escherichia coli

Beta-lactamase TEM, sequence (P62593 whole entry): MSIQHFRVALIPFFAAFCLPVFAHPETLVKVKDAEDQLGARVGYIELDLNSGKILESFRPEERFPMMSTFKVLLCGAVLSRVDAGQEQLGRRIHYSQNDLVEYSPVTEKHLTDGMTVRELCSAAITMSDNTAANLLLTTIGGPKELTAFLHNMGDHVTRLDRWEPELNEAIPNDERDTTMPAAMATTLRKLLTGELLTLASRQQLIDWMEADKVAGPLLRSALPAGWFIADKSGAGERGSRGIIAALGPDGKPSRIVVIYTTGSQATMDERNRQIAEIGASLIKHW

Which Ki does the source give for OB(O)c1ccc(Cl)c(Cl)c1 here?
Its Ki is 143 µM.

Which Ki does the source give for OB(O)c1cccc(Br)c1 here?
The Ki was 83 µM.

How did the Ki turn out when Cc1ccc(CCB(O)O)cc1 was run?
Its Ki is 58 µM.

For OB(O)c1ccc(Br)cc1, which Ki is on record?
The Ki was 28 µM.

With Cc1ccccc1CCB(O)O as the molecule, how does the Ki read?
The Ki was 141 µM.

For COc1ccc(B(O)O)cc1, which Ki is on record?
The Ki was 670 µM.

How did the Ki turn out when O=C(O)c1ccc(CCB(O)O)cc1 was run?
The Ki was 49 µM.

Which Ki does the source give for COc1cccc(CCB(O)O)c1 here?
Its Ki is 50 µM.

With OB(O)CCc1ccccc1Cl as the molecule, how does the Ki read?
Its Ki is 106 µM.

OB(O)CCc1ccc(Cl)cc1 was tested. Which Ki did it give?
Its Ki is 41 µM.

How did the Ki turn out when OB(O)CCc1ccc(C(F)(F)F)cc1 was run?
Its Ki is 43 µM.

OB(O)c1cccc(-c2ccccc2)c1 was tested. Which Ki did it give?
The Ki was 13.9 µM.

How did the Ki turn out when OB(O)CCC1CCCCC1 was run?
Its Ki is 276 µM.

For OB(O)c1ccc(F)c(Cl)c1, which Ki is on record?
Its Ki is 152 µM.

OB(O)CCc1ccc2ccccc2c1 was tested. Which Ki did it give?
Its Ki is 44 µM.

With OB(O)c1ccc(Cl)cc1Cl as the molecule, how does the Ki read?
Its Ki is 94 µM.

With OB(O)CCc1cccc2ccccc12 as the molecule, how does the Ki read?
The Ki was 101 µM.

With OB(O)c1ccccc1 [PHENYLBORONIC ACID] as the molecule, how does the Ki read?
The Ki was 491 µM.

With Nc1cccc(B(O)O)c1 as the molecule, how does the Ki read?
Its Ki is 3700 µM.

Cc1cccc(CCB(O)O)c1 was tested. Which Ki did it give?
Its Ki is 83 µM.
